# How the values were obtained:
# [1] = system: SW480 colon cancer cells; experiment: Cell viability assay (CellTiter-Blue) in SW480 colon cancer cells; format: cell-based; settings: Homo sapiens, 96 h, four days; for inhibition at 10 µM: given where EC50 >10 μM, read-out: percent inhibition at 10 μM; for EC50: CellTiter-Blue
# Procedure, shortened: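 Four-day viability readout in SW480 cells: compound at 0.0045–10 μM (1:3 series), DMSO controls in eight replicates, CellTiter-Blue fluorescence after ~3 h. Values are regression-derived EC50s, or percent inhibition at 10 μM when EC50 exceeds 10 μM.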
# [2] = system: Primary human fibroblasts derived from IPF patients (LL29 cells) treated with TGF-β1; experiment: Inhibition of the fibrotic process: αSMA staining in TGF-β1-treated primary human fibroblasts from IPF patients (LL29 cells); format: cell-based; settings: Fibroblast, 96 h; for EC50: % αSMA-positive LL29 cells, TGF-β1 20 ng/mL, 4 days
# Procedure, shortened: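 LL29 IPF-patient fibroblasts in 1% FBS stimulated with TGF-β1 (20 ng/mL) and compound (10 μM–1.87 nM, 0.1% DMSO) for 4 days at 37 °C. SYTOX-positive cells excluded; % αSMA-positive cells imaged, normalized to TGF-β1/DMSO wells; EC50 by nonlinear regression, else % inhibition at 10 μM.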
SMILES,EC50 [1] [µM],inhibition at 10 µM [1] [%],EC50 [2] [µM],"inhibition at 10 µM ([2]; at 10 μM, given where EC50 >10 μM, αSMA, LL29 cells, TGF-β1, 4 days, read-out: percent inhibition at 10 μM) [%]"
"Fc1cccc(-c2cccc3[nH]c(-c4n[nH]c5ccc(-c6ccncc6)cc45)cc23)c1 [Compound 18, 3-(4-(3-Fluorophenyl)-1H-indol-2-yl)-5-(pyridin-4-yl)-1H-indazole]",> 10,10.2,5.55,–
"CC(C)(C)CC(=O)Nc1cncc(-c2ccc3[nH]nc(-c4cc5c(-c6ccsc6)cccc5[nH]4)c3c2)c1 [Compound 296, 3,3-Dimethyl-N-(5-(3-(4-(thiophen-3-yl)-1H-indol-2-yl)-1H-indazol-5-yl)pyridin-3-yl)butanamide]",0.97,–,> 10,21
"O=C(Nc1cncc(-c2ccc3[nH]nc(-c4cc5c(-c6ccsc6)cccc5[nH]4)c3c2)c1)C1CCCCC1 [Compound 303, N-(5-(3-(4-(Thiophen-3-yl)-1H-indol-2-yl)-1H-indazol-5-yl)pyridin-3-yl) cyclohexanecarboxamide]",> 10,15,2.79,–

# Further lines, with some results ahead:
EC50 [1] [µM],SMILES,inhibition at 10 µM [1] [%],EC50 [2] [µM],"inhibition at 10 µM ([2]; at 10 μM, given where EC50 >10 μM, αSMA, LL29 cells, TGF-β1, 4 days, read-out: percent inhibition at 10 μM) [%]"
> 10,"O=C(Cc1ccccc1)Nc1cncc(-c2ccc3[nH]nc(-c4cc5c(-c6ccoc6)cccc5[nH]4)c3c2)c1 [Compound 318, N-(5-(3-(4-(Furan-3-yl)-1H-indol-2-yl)-1H-indazol-5-yl)pyridin-3-yl)-2-phenylacetamide]",31.9,0.844,–
> 10,"c1cc(-c2ccoc2)c2cc(-c3n[nH]c4ccc(-c5cncc(CNCC6CCCC6)c5)cc34)[nH]c2c1 [Compound 333, 1-Cyclopentyl-N-((5-(3-(4-(furan-3-yl)-1H-indol-2-yl)-1H-indazol-5-yl)pyridin-3-yl)methyl)methanamine]",19.1,3.74,–
0.294,"Nc1cncc(-c2ccc3[nH]nc(-c4cc5c(-c6ccoc6)cccc5[nH]4)c3c2)c1 [Compound 311, 5-(3-(4-(Furan-3-yl)-1H-indol-2-yl)-1H-indazol-5-yl)pyridin-3-amine]",–,5.04,–
